Reference: US9365583B2, “Substituted pyrazoles and uses thereof” (Genentech, Inc., priority 2013, dated 2016)

The molecules below were run against T1, N-terminally GST-tagged DLK (catalytic domain amino acid 1-520) (Homo sapiens, UniProt Q12852) (assay: DLK TR-FRET inhibition assay). Conditions: 5 nM GST-DLK, 40 nM HIS-MKK4 K131M substrate, 30 μM ATP, 60 minutes at ambient temperature.
T1 construct: N-terminally GST-tagged DLK (catalytic domain amino acid 1-520); purchased Carna Bioscience
T1 sequence (Q12852 1-520): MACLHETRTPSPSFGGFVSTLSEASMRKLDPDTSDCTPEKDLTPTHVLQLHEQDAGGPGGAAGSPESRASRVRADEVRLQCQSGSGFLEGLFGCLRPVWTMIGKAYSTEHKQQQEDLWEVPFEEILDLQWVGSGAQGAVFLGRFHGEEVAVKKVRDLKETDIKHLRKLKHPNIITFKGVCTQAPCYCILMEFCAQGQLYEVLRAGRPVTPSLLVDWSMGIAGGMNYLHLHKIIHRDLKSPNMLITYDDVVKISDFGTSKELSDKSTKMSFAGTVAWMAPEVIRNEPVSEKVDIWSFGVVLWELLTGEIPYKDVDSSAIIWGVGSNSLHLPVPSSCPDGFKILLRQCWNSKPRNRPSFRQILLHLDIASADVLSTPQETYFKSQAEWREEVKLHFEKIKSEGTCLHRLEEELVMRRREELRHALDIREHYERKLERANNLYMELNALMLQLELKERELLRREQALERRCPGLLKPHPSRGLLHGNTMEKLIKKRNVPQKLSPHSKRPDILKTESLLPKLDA
Format: biochemical
Method in brief: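 Phosphorylated MKK4 was quantified by TR-FRET (Eu-labelled anti-phospho-MKK4, D2 anti-HIS; 3 h, 665 and 615 nm emission) after EDTA quench. Reactions held 5 nM GST-tagged DLK catalytic domain (1-520), 40 nM HIS-MKK4 K131M substrate, 30 μM ATP and compound (3-fold series from 20 uM), 60 min, room temperature, pH 7.5.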

Molecule | Ki [nM]
CC(C)n1nc(-c2cnc3cnn([C@H](C)c4ccccn4)c3c2)cc1[C@H]1[C@@H]2C[C@H](N3CCOCC3)C[C@@H]21 [compound 33, 4-((1R3R,5S,6r)-6-(1-isopropyl-3-(1-((R)-1-(pyridin-2-yl)ethyl)-1H-pyrazolo[4,3-b]pyridin-6-yl)-1H-pyrazol-5-yl)bicyclo[3.10]hexan-3-yl)morpholine] | 123
CC(C)n1nc(-c2cnc(N)c(OC(F)F)c2)cc1[C@H]1[C@@H]2C[C@@H](N3CC[C@H](F)C3)C[C@@H]21 [compound 289, 3-(difluoromethoxy)-5-(5-((1R,3s,5S,6S)-3-((S)-3-fluoropyrrolidin-1-yl)bicyclo[3.1.0]hexan-6-yl)-1-isopropyl-1H-pyrazol-3-yl) pyridin-2-amine] | 4.4
CC(C)n1nc(-c2cnc(N)c(OC(F)F)c2)cc1[C@H]1[C@@H]2C[C@H](N3CC(F)(F)C3)C[C@@H]21 [compound 43, 5-(5-((1R,3r,5S,6r)-3-(3,3-difluoro-azetidin-1-yl)bicyclo[3.1.0]hexan-6-yl)-1-isopropyl-1H-pyrazol-3-yl)-3-(difluoromethoxy) pyridin-2-amine] | 3.05
CC(C)n1nc(-c2cnc(N)c(C(F)(F)F)c2)cc1[C@H]1[C@@H]2C[C@@H](N3CC4(CCCO4)C3)C[C@@H]21 [compound 222, 5-(5-((1R,3s,5S,6r)-3-(5-oxa-2-azaspiro[3.4]octan-2-yl)bicyclo [3.1.0]hexan-6-yl)-1-isopropyl-1H-pyrazol-3-yl)-3-(trifluoromethyl) pyridin-2-amine] | 2.7
CC(C)n1nc(-c2cnc(N)c(OC(F)(F)F)c2)cc1[C@H]1[C@@H]2C[C@H](N3CCCOCC3)C[C@@H]21 [compound 101, 5-(5-((1R,3r,5S,6r)-3-(1,4-oxazepan-4-yl)bicyclo[3.1.0]hexan-6-yl)-1-isopropyl-1H-pyrazol-3-yl)-3-(trifluoromethoxy)pyridin-2-amine] | 0.44
Nc1ncc(-c2cc([C@H]3[C@@H]4C[C@@H](N5CCOCC5)C[C@@H]43)n(CC(F)F)n2)cc1OC(F)(F)F [compound 165, 5-(1-(2,2-difluoroethyl)-5-((1R,3s,5S,6r)-3-morpholinobicyclo [3.1.0]hexan-6-yl)-1H-pyrazol-3-yl)-3-(trifluoromethoxy) pyridin-2-amine] | 1.6
CC(C)n1nc(-c2cnc(N)c(OC(F)(F)F)c2)cc1[C@H]1[C@@H]2C[C@H](N3CC(F)(F)C3)C[C@@H]21 [compound 53, 5-(5-((1R,3r,5S,6r)-3-(3,3-difluoro-azetidin-1-yl)bicyclo[3.1.0]hexan-6-yl)-1-isopropyl-1H-pyrazol-3-yl)-3-(trifluoromethoxy) pyridin-2-amine] | 4.72
CCN1CCN([C@@H]2C[C@@H]3[C@H](C2)[C@H]3c2cc(-c3cnc(N)c(C(F)(F)F)c3)nn2C(C)C)CC1 [compound 17, 5-(5-((1R,3s,5S,6r)-3-(4-ethylpiperazin-1-yl)bicyclo[3.1.0]hexan-6-yl)-1-isopropyl-1H-pyrazol-3-yl)-3-(trifluoromethyl)pyridin-2-amine] | 2.92
CC(C)n1nc(-c2cnc(N)c(C(F)(F)F)c2)cc1[C@H]1[C@@H]2CC3(C[C@@H]21)CN(C)C(=O)CO3 (stereo partly drawn) [compound 229, (1R,5S,6r)-6-(3-(6-amino-5-(tri-fluoromethyl)pyridin-3-yl)-1-isopropyl-1H-pyrazol-5-yl)-4′-methylspiro[bicyclo[3.1.0]hexane-3,2′-morpholin]-5′-one] | 3.9
CC(C)n1nc(-c2cnc(N)c(OC(F)(F)F)c2)cc1[C@H]1[C@@H]2C[C@@]3(CCN3CC(F)F)C[C@@H]21 [compound 147, 5-(5-((1′R,2r,5′S,6′r)-1-(2,2-difluoro-ethyl)spiro[azetidine-2,3′-bicyclo[3.1.0]hexan]-6′-yl)-1-isopropyl-1H-pyrazol-3-yl)-3-(trifluoro-methoxy)pyridin-2-amine] | 5.7
CC(C)n1nc(-c2cnc(N)c(C(F)(F)F)c2)cc1[C@H]1[C@@H]2C[C@H](N3CCN(C)C[C@@H]3C)C[C@@H]21 [compound 242, 5-(5-((1R,3r,5S,6S)-3-((S)-2,4-dimethylpiperazin-1-yl)bicyclo [3.1.0]hexan-6-yl)-1-isopropyl-1H-pyrazol-3-yl)-3-(trifluoromethyl) pyridin-2-amine] | 2.1
5-(1-isopropyl-5-((1R,3r,5S,6R)- 3-((R)-2-methylmorpholino) bicyclo[3.1.0]hexan-6-yl)-1H- pyrazol-3-yl)-3-(trifluoromethyl) pyridin-2-amine [compound 2] | 2.06
Nc1ncc(-c2cc([C@H]3[C@@H]4C[C@@H](N5CCOCC5)C[C@@H]43)n(C3CCCC3)n2)cc1OC(F)F [compound 130, 5-(1-cyclopentyl-5-((1R,3s,5S,6r)-3-morpholinobicyclo[3.1.0]hexan-6-yl)-1H-pyrazol-3-yl)-3-(difluoromethoxy)pyridin-2-amine] | 4.82

Second part, the molecule after the results:

Ki [nM] | Molecule
0.7 | CC(C)n1nc(-c2cnc(N)c(OC(F)F)c2)cc1[C@H]1[C@@H]2C[C@@H](N3CCN4CCCC4C3)C[C@@H]21 (single isomer, unassigned) [compound 259]
> 1600 | CC(C)n1nc(-c2cnc(N)c(C(F)(F)F)c2)cc1[C@@H]1[C@@H]2C[C@H](N3CCOCC3)C[C@@H]21 [compound 126, 5-(1-isopropyl-5-((1R,5S,6s)-3-morpholinobicyclo[3.1.0]hexan-6-yl)-1H-pyrazol-3-yl)-3-(trifluoro-methyl)pyridin-2-amine]
4.5 | CC(C)n1nc(-c2cnc(N)c(C(F)(F)F)c2)cc1[C@H]1[C@@H]2C[C@H](N3CC4(CCCO4)C3)C[C@@H]21 [compound 227, 5-(5-((1R,3r,5S,6r)-3-(5-oxa-2-azaspiro[3.4]octan-2-yl)bicyclo [3.1.0]hexan-6-yl)-1-isopropyl-1H-pyrazol-3-yl)-3-(trifluoro-methyl)pyridin-2-amine]
4.6 | Nc1ncc(-c2cc([C@H]3[C@@H]4C[C@@H](N5CCOCC5)C[C@@H]43)n(CC3CC3)n2)cc1OC(F)(F)F [compound 292, 5-(1-(cyclopropylmethyl)-5-((1R,3s,5S,6r)-3-morpholinobicyclo [3.1.0]hexan-6-yl)-1H-pyrazol-3-yl)-3-(trifluoromethoxy) pyridin-2-amine]
1.13 | CC(C)n1nc(-c2cnc(N)c(C(F)(F)F)c2)cc1[C@H]1[C@@H]2C[C@H](N3CC4(COC4)C3)C[C@@H]21 [compound 65, 5-(5-((1R,3r,5S,6r)-3-(2-oxa-6-azaspiro[3.3]heptan-6-yl)bicyclo [3.1.0]hexan-6-yl)-1-isopropyl-1H-pyrazol-3-yl)-3-(trifluoro-methyl)pyridin-2-amine]
1.8 | CC(C)n1nc(-c2cnc(N)c(OC(F)F)c2)cc1[C@H]1[C@@H]2C[C@H](N3CCN(CC(F)F)CC3)C[C@@H]21 [compound 264, 5-(5-((1R,3r,5S,6r)-3-(4-(2,2-difluoroethyl)piperazin-1-yl)bicyclo [3.1.0]hexan-6-yl)-1-isopropyl-1H-pyrazol-3-yl)-3-(difluoromethoxy)pyridin-2-amine]
2.6 | CC(C)n1nc(-c2cnc(N)c(OC(F)F)c2)cc1[C@H]1[C@@H]2C[C@@]3(CCN3CC(F)F)C[C@@H]21 [compound 162, 5-(5-((1′R,2r,5′S,6′r)-1-(2,2-difluoro-ethyl)spiro[azetidine-2,3′-bicyclo[3.1.0]hexan]-6′-yl)-1-isopropyl-1H-pyrazol-3-yl)-3-(difluoro-methoxy)pyridin-2-amine]
